Entries after “also recorded” stand apart in the source; their conditions may differ. Read-outs that look alike come from different tables or passages of the source.
What was measured:
[1] = tested on: isolated, perfused guinea pig heart; assay: Perfusion of doxorubicin and dexrazoxane in the isolated, perfused guinea pig heart (Langendorff); settings: for % change in MAP duration / % change in QTc / Cardiac rate / Cor flow / LV dp/dt max / LV dpdt (relax) / LV peak systolic pressure / LVEDP / MAP Duration / QTcF: 30 min of perfusion
Experimental: Perfusion studies of doxorubicin and dexrazoxane in the isolated, perfused guinea pig heart were performed similarly as above. The following parameters were recorded continuously: electrocardiogram (ECG), monophasic action potentials (MAP), perfusion pressure, left ventricular pressure and coronary flow. These effects could be related to some modifications of cardiac electrophysiology (changes in PR, QRS, QT and RR intervals, proarrhythmic effects, Torsade de pointes . . . ), of coronary resistance and/or of cardiac contraction or inotropism (contractility or relaxation troubles).
Stock solutions (10^−2M, 3×10^−2M) in H20 for each drug were prepared each day of the experiment and a dilution (1/1000) done in the perfusion buffer in order to get the appropriate concentrations:
The buffer used in the experiment was KREBS-[…] buffer (Sigma K-3753) to which was added sodium bicarbonate (Sigma S5761) 25 mM and calcium chloride dihydrate (Sigma C8106) 1.8 mM.
The ECG (2 electrodes: on the apex and closed to the right auricular) and the MAP (electrode on the epicardium) were recorded. PR, QRS, QT and RR were measured and QTc (Fridericia; QTc=QT/(RR) ⅓ in ms) was calculated.
The coronary flow (mL/min) is indicated by the perfusion pump. In this model, the perfusion pressure was constant.
Diastolic pressure (mmHg), systolic pressure (mmHg), differential pressure (syst-diast) (mmHg), mean pressure (mmHg), dP/dt min (mmHg/sec) dP/dt max (mmHg/sec) and cardiac frequency (beat per minute: BPM) were measured. A modification of the inotropism can be a problem of cardiac contractility (if modified systolic pressure and dP/dt max) or relaxation (if modified diastolic pressure and dP/dt min). From the left ventricular pressure, the following were calculated: heart rate (frequency of cardiac contractions), dP/dt min and dP/dt max. An acquisition unit MP150WSW with Acknowledge software (Biopac, USA) was used to continuously record all the signals (perfusion pressure, coronary flow, left ventricular pressure, ECG and MAP) through a PC computer. In each group (n=4 hearts), increasing concentrations of compound were infused according to the following design:
For each group, the data are expressed as mean ±S.E.M, % of variation compared to D0 and delta variation from D0. PR, QRS, QT and RR are measured on the same period but on a signal which results from 5 cycles.
On all the curves, the mean value is measured on 30 seconds in the last minute of perfusion for the following parameters: […]

[2] = tested on: isolated guinea pig myocytes; assay: Action potential properties in isolated guinea pig myocytes; format: cell-based; settings: for action potential duration (effect in words): over the tested concentrations
[3] = tested on: isolated guinea pig myocytes; assay: Calcium transients in isolated guinea pig myocytes; format: cell-based; settings: for calcium transients (effect in words): over the tested concentrations
Experimental: Calcium transients were measured during activation in isolated guinea pig myocytes. […] This increase in calcium transient without an action potential increase indicates an effect on calcium cycling proteins.

[4] = cited from earlier work
[5] = tested on: single guinea-pig ventricular myocytes; assay: Action potential recording in single guinea-pig ventricular myocytes; format: cell-based; settings: for action potential duration (effect in words): superfused 10 to 30 minutes
Experimental: Myocytes were isolated after perfusion of the heart with a physiological salt solution containing reduced calcium and 0.8 mg/mL of collagenase Type 1 (Worthington Biochemicals).
Action potentials were recorded from single guinea-pig ventricular myocytes using the standard control conditions and criteria as adopted by CCTT Ltd. (see http://www.cctt.ltd.uk/ap1.htm). Briefly, action potentials were recorded using conventional glass microelectrodes filled with 1 M KMeSO4 and 10 mM KCl. Electrode resistances were in the range of 40 to 60 MΩ. An Axoclamp 2B (Axon Instruments Inc) amplifier was used for electrical recording. Action potentials were continuously stimulated by application of a brief (1-2 ms) current stimuli applied via the intracellular microelectrode in ‘bridge’ mode. Following penetration of the cell with the microelectrode, a stabilisation period of at least 5 min was allowed before recordings were started. The frequency of stimulation was 1 Hz. Recorded signals were digitised at a sampling frequency of 5 kHz and stored for subsequent off line analysis. Action potential signals were continuously monitored online using an oscilloscope (Tektronix digital storage oscilloscope) to check for development of effects of dexrazoxane. All recordings are made at 36±1° C.
The stability of several parameters of the action potential profile (resting potential, action potential amplitude and action potential duration) was ensured before recordings were commenced. Resting potential was measured over a 5-10 ms period before the stimulus artefact and values for the resting potential falling between −75 to −85 mV were taken as normal. Action potential amplitude was measured following the stimulus artefact and values falling between 110 to 130 mV were taken as normal.
All data are presented as mean ±SEM. The effect of dexrazoxane on action potential characteristics was assessed using Student's t-test (MicroSoft Excel) and P<0.05 was taken to indicate statistical significance.
Action potential duration was measured from the peak amplitude of the action potential to 90% repolarisation level (APD90), and values for APD90 falling between 150 to 300 ms were taken as normal. Parameters measured in this study were action potential duration at 40, and 90% repolarisation levels (APD40 and APD90) using Clampfit 9.0.
For each cell, APD40 and APD90 values were calculated in the absence (control) and presence of a drug. As an index of ‘Triangulation’ APD90-APD40, (APD90-40 ms) in the absence (APD90-40 control) and presence of dexrazoxane (APD90-40 drug) were calculated. This was normalised to the starting (control) APD90 to express APD90-40 duration as a % of control APD90. Calculations were made for each cell individually; the values for each drug concentration were then averaged.

[6] = tested on: Langendorff heart preparations; assay: Heart rate variability after total flow occlusion in stable Langendorff heart preparations; settings: 10 μM, 30 min
[7] = tested on: single ventricular myocytes; assay: Unloaded cell shortening (UCS) of single ventricular myocytes; settings: 10 μM
[8] = cited from earlier work; remark: listed apart in the source
[9] = doxorubicin perfusion, 30 minute time point

## COc1cccc2c1C(=O)c1c(O)c3c(c(O)c1C2=O)C[C@@](O)(C(=O)CO)C[C@@H]3O[C@H]1C[C@H](N)[C@H](O)[C@H](C)O1 [Doxorubicin]
[1]; DOX 3 * 10^−5 mM
  % change in MAP duration: 13.3%
  % change in QTc: 11.9 % change
  Cardiac rate: 184 Beats/min
  Cor flow: 14.4 mL/min
  LV dp/dt max: 887 mmHg sec^−1
  LV dpdt (relax): −922 mmHg sec^−1
  LV peak systolic pressure: 93 mmHg
  LVEDP: 14 mmHg
  MAP Duration: 162 ms
  QTcF: 272 ms
[1]; DOX 10^−5 mM
  % change in MAP duration: 2.2%
  % change in QTc: 1.6 % change
  Cardiac rate: 217 Beats/min
  Cor flow: 13.4 mL/min
  LV dp/dt max: 1277 mmHg sec^−1
  LV dpdt (relax): −1173 mmHg sec^−1
  LV peak systolic pressure: 97 mmHg
  LVEDP: 7 mmHg
  MAP Duration: 142 ms
  QTcF: 247 ms
[1]; [9]
  LVEDP (effect in words): marked increase
  QTcF (effect in words): increased
[2]; 30 μM
  APD50: 553 ± 29 ms
  APD90: 626 ± 28 ms
  Action potentials, Peak amplitude: 120 ± 3 mV
  Action potentials, Resting potential: −70 ± 3 mV
[2]; 100 μM
  APD50: 646 ± 26 ms
  Action potentials, Peak amplitude: 119 ± 2 mV
  Action potentials, Resting potential: −68 ± 3 mV
[2]; 300 μM
  APD50: 536 ± 48 ms
  APD90: 611 ± 48 ms
  Action potentials, Peak amplitude: 122 ± 4 mV
  Action potentials, Resting potential: −69 ± 2 mV
[2]
  action potential duration (effect in words): profound prolongation
[3]; 30 μM
  Ca^2+ transients, Peak amplitude (ΔF/F0): 3.0 ± 0.7 ΔF/F0
[3]; 100 μM
  Ca^2+ transients, Peak amplitude (ΔF/F0): 3.1 ± 0.5 ΔF/F0
[3]; 300 μM
  Ca^2+ transients, Peak amplitude (ΔF/F0): 1.6 ± 0.3 ΔF/F0
[3]
  calcium transients (effect in words): dose related decrease

## C[C@@H](CN1CC(=O)NC(=O)C1)N1CC(=O)NC(=O)C1 [Dexrazoxane, (S)-4,4′-(1-methyl-1,2-ethanediyl)bis-2,6-piperazinedione]
[4]
  stability of lyophilized drug without significant decomposition: ~12 months
[5]; 10 μM in superfusion solution, n=3, P<0.005
  decrease in APD40: 18±4%
[5]; 10 μM superfusion
  APD90-40 duration (index of triangulation): did not significantly alter
[5]; 10 μM, 27 minutes, control 212±9 ms
  action potential duration (APD90): 168 ± 12 ms
[5]; 10 μM, perfusion 27 minutes, n=4, P<0.005
  shortening of APD90: 18±3%
[5]; 10 μM
  action potential duration (effect in words): shortened action potential duration
[5]; 10 μM, listed as dexrazoxane
  action potential duration (effect in words): shortened action potential duration; also recorded: caused shortening of action potential duration
[5]; 10 μM, control 175±8 ms
  APD40: 136 ± 15 ms
[1]; DOX 3 * 10^−5 mM
  % change in MAP duration: 0.0%
  % change in QTc: −1.7 % change
  Cardiac rate: 200 Beats/min
  Cor flow: 14.6 mL/min
  LV dp/dt max: 1041 mmHg sec^−1
  LV dpdt (relax): −1022 mmHg sec^−1
  LV peak systolic pressure: 82 mmHg
  LVEDP: 5 mmHg
  MAP Duration: 143 ms
  QTcF: 237 ms
[1]; DOX 10^−5 mM
  % change in MAP duration: 0%
  % change in QTc: −2.1 % change
  Cardiac rate: 203 Beats/min
  Cor flow: 14 mL/min
  LV dp/dt max: 1238 mmHg sec^−1
  LV dpdt (relax): −1139 mmHg sec^−1
  LV peak systolic pressure: 94 mmHg
  LVEDP: 5 mmHg
  MAP Duration: 139 ms
  QTcF: 236 ms
[1]; dexrazoxane added to the doxorubicin perfusion
  LVEDP (effect in words): did not contribute
[1]; dexrazoxane added, both doxorubicin doses
  QTcF increase by doxorubicin (effect in words): reversed
[6]; control 2.9±0.2, n=3, P=ns
  coefficient of variation (heart rate variability) at reperfusion: 3.3±1.1
[6]; reperfusion after 15 min total flow ischemia, n=3
  increase of coefficient of variation (heart rate variability) during reperfusion: 77%
[2]; 10 μM
  APD50: 512 ± 47 ms
  APD90: 573 ± 43 ms
  Action potentials, Peak amplitude: 119 ± 2 mV
  Action potentials, Resting potential: −69 ± 0 mV
[2]; 30 μM
  APD50: 493 ± 36 ms
  APD90: 564 ± 33 ms
  Action potentials, Peak amplitude: 121 ± 2 mV
  Action potentials, Resting potential: −68 ± 2 mV
[2]; 100 μM
  APD50: 548 ± 45 ms
  APD90: 619 ± 39 ms
  Action potentials, Peak amplitude: 124 ± 1 mV
  Action potentials, Resting potential: −66 ± 1 mV
[2]
  action potential duration (effect in words): without inducing a change
[3]; 10 μM
  Ca^2+ transients, Peak amplitude (ΔF/F0): 5.2 ± 0.8 ΔF/F0
[3]; 30 μM
  Ca^2+ transients, Peak amplitude (ΔF/F0): 5.8 ± 1.0 ΔF/F0
[3]; 100 μM
  Ca^2+ transients, Peak amplitude (ΔF/F0): 5.1 ± 0.6 ΔF/F0
[3]
  calcium transients (effect in words): dose proportional increase
[7]; 27 minutes
  amplitude of UCS / contraction (effect in words): did not significantly alter
[7]; 27 minutes, n=3, control 9.4±3.4 μm, P=ns
  peak amplitude of UCS, absolute cell shortening: 10.7±3.2 μm
[7]; n=3, control 8.5±2.7% RCL, P=ns
  UCS as percentage of resting cell length: 8.0±2.0 % RCL
[8]; 0.1 N HCl at 25° C., salt of hydrochloric acid
  solubility in 0.1 N HCl: 35 mg/mL
[8]; 0.1 N HCl
  solubility in 0.1 N HCl: sparingly soluble
[8]; 25° C.
  solubility in water: about 10 mg/ml
[8]
  solubility in non-polar, organic solvents: practically insoluble
[8]; ethanol and methanol
  solubility in polar solvents: slightly soluble

— patent US20080275036A1, “Prevention and treatment of cardiac conditions” (APT Pharmaceuticals, Inc., priority 2007, published 2008)
